According to ChEMBL document CHEMBL2434905, “2-Amino-6-chloro-3,4-dihydroquinazoline: A novel 5-HT3 receptor antagonist with antidepressant character” (Bioorg Med Chem Lett, 2013):

Key:
[1] = biological target: 5-hydroxytryptamine receptor 5A (Homo sapiens, UniProt P47898); test: Displacement of [3H]LSD from human recombinant 5-HT5A receptor expressed in CHO cells after 90 mins by scintillation counting analysis; assay type: cell-based
[2] = biological target: 5-hydroxytryptamine receptor 7 (Homo sapiens, UniProt P34969); test: Displacement of [3H]LSD from human recombinant 5-HT7 receptor expressed in HEK cells after 90 mins by scintillation counting analysis; assay type: cell-based, HEK293
[3] = biological target: T1, 5-hydroxytryptamine receptor 3A (Homo sapiens, UniProt P46098); test: Displacement of [3H]GR65630 from human 5-HT3 receptor expressed in African green monkey COS cells after 90 mins by scintillation counting analysis; assay type: cell-based
T1 sequence (P46098 whole entry): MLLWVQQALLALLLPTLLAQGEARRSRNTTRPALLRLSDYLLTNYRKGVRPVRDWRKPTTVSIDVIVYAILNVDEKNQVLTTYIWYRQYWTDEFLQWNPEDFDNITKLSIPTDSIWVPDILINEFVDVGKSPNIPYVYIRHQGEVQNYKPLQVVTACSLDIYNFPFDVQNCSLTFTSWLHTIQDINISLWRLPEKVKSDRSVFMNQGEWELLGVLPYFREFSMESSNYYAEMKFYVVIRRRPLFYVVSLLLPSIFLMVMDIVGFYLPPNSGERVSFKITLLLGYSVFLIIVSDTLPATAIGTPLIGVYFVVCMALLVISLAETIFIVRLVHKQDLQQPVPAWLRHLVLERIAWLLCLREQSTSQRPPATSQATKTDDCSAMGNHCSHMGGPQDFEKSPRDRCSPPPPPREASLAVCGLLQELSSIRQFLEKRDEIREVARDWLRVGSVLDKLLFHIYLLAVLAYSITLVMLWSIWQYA

[4] = biological target: 5-hydroxytryptamine receptor 2C (Homo sapiens, UniProt P28335); test: Displacement of [3H]Mesulergine from human recombinant 5-HT2C receptor expressed in HEK cells after 90 mins by scintillation counting analysis; assay type: cell-based, HEK293
[5] = biological target: 5-hydroxytryptamine receptor 2B (Homo sapiens, UniProt P41595); test: Displacement of [3H]LSD from human recombinant 5-HT2B receptor expressed in HEK cells after 90 mins by scintillation counting analysis; assay type: cell-based, HEK293
[6] = biological target: 5-hydroxytryptamine receptor 2A (Homo sapiens, UniProt P28223); test: Displacement of [3H]Ketanserin from human recombinant 5-HT2A receptor expressed in HEK cells after 90 mins by scintillation counting analysis; assay type: cell-based, HEK293
[7] = biological target: T2, 5-hydroxytryptamine receptor 3A (Mus musculus, UniProt P23979); test: Antagonist activity at mouse 5-HT3A receptor expressed in Xenopus oocytes assessed as reduction of 5HT-induced current by two-electrode voltage clamp technique; assay type: cell-based, Oocyte
T2 sequence (P23979 whole entry): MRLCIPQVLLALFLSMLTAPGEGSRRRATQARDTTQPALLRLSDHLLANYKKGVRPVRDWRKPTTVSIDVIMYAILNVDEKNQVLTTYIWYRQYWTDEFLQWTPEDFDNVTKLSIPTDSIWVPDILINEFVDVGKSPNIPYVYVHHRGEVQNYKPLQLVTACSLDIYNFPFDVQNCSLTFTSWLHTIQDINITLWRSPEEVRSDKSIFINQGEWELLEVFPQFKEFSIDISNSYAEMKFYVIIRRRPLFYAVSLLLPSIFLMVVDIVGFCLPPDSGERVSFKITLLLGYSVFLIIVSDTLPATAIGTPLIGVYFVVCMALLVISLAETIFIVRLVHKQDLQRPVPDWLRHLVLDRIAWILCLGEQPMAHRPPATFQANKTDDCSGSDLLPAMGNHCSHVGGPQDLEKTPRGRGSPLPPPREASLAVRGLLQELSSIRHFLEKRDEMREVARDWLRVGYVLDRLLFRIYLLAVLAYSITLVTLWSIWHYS

[8] = biological target: T2, 5-hydroxytryptamine receptor 3A; test: Displacement of [3H]LY278584 from mouse 5-HT3A receptor
[9] = biological target: 5-hydroxytryptamine receptor 1D (Homo sapiens, UniProt P28221); test: Displacement of [3H]5-CT from human recombinant 5-HT1D receptor expressed in HEK cells after 90 mins by scintillation counting analysis; assay type: cell-based, HEK293
[10] = biological target: T1, 5-hydroxytryptamine receptor 3A; test: Displacement of [3H]GR65630 from 5-HT3 receptor (unknown origin) expressed in mouse/rat NG108-15 cells after 30 mins by liquid scintillation counting analysis; assay type: cell-based
[11] = tested on: Mus musculus; test: Toxicity in ICR mouse assessed as total movement distance at 1 to 3 mg/kg, ip after 15 to 45 mins by locomotor activity assay relative to vehicle-treated control; assay type: organism-based; set-up: route intraperitoneal; conditions: in vivo
[12] = tested on: Mus musculus; test: Toxicity in ICR mouse assessed as total movement time at 1 to 3 mg/kg, ip after 15 to 45 mins by locomotor activity assay relative to vehicle-treated control; assay type: organism-based; set-up: route intraperitoneal; conditions: in vivo
[13] = tested on: Mus musculus; test: Antidepressant activity in ip dosed ICR mouse assessed as immobility time by tail suspension test; assay type: functional
[14] = Lipophilicity, log P of the compound by HPLC analysis; assay type: physicochemical
[15] = biological target: Translocator protein (Rattus norvegicus, UniProt P16257); test: Displacement of [3H]PK11195 from PBR in rat brain after 90 mins by scintillation counting analysis; assay type: tissue-based
[16] = biological target: Sodium-dependent serotonin transporter (Homo sapiens, UniProt P31645); test: Displacement of [3H]cfitalopramfrom human recombinant serotonin transporter expressed in HEK cells after 90 mins by scintillation counting analysis; assay type: cell-based, HEK293
[17] = biological target: Mu-type opioid receptor (Homo sapiens, UniProt P35372); test: Displacement of [3H]DAMGO from human recombinant mu opioid receptor expressed in HEK cells after 90 mins by scintillation counting analysis; assay type: cell-based, HEK293
[18] = biological target: Muscarinic acetylcholine receptor M5 (Homo sapiens, UniProt P08912); test: Binding affinity to human recombinant muscarinic M5 receptor expressed in CHO cells after 90 mins by radioligand displacement assay; assay type: cell-based
[19] = biological target: Muscarinic acetylcholine receptor M4 (Homo sapiens, UniProt P08173); test: Binding affinity to human recombinant muscarinic M4 receptor expressed in CHO cells after 90 mins by radioligand displacement assay; assay type: cell-based
[20] = biological target: Muscarinic acetylcholine receptor M2 (Homo sapiens, UniProt P08172); test: Binding affinity to human recombinant muscarinic M2 receptor expressed in CHO cells after 90 mins by radioligand displacement assay; assay type: cell-based
[21] = biological target: Muscarinic acetylcholine receptor M3 (Homo sapiens, UniProt P20309); test: Binding affinity to human recombinant muscarinic M3 receptor expressed in CHO cells after 90 mins by radioligand displacement assay; assay type: cell-based
[22] = biological target: Muscarinic acetylcholine receptor M1 (Homo sapiens, UniProt P11229); test: Binding affinity to human recombinant muscarinic M1 receptor expressed in CHO cells after 90 mins by radioligand displacement assay; assay type: cell-based
[23] = biological target: Kappa-type opioid receptor (Homo sapiens, UniProt P41145); test: Displacement of [3H]U69593 from kappa opioid receptor (unknown origin) expressed in HEK cells after 90 mins by scintillation counting analysis; assay type: cell-based, HEK293
[24] = biological target: Histamine H3 receptor (Homo sapiens, UniProt Q9Y5N1); test: Displacement of [3H]-alpha-methylhistamine from human recombinant histamine H3 receptor expressed in HEK cells after 90 mins by scintillation counting analysis; assay type: cell-based, HEK293
[25] = biological target: Histamine H1 receptor (Homo sapiens, UniProt P35367); test: Displacement of [3H]Pyrilamine from human recombinant histamine H1 receptor expressed in HEK cells after 90 mins by scintillation counting analysis; assay type: cell-based, HEK293
[26] = Displacement of [3H]Muscimol from GABAA in rat brain after 90 mins by scintillation counting analysis; assay type: tissue-based
[27] = biological target: Delta-type opioid receptor (Homo sapiens, UniProt P41143); test: Displacement of [3H]DADLE from human recombinant delta opioid receptor expressed in HEK cells after 90 mins by scintillation counting analysis; assay type: cell-based, HEK293
[28] = biological target: Sodium-dependent dopamine transporter (Homo sapiens, UniProt Q01959); test: Displacement of [3H]WIN35428 from human recombinant sodium-dependent dopamine transporter expressed in HEK cells after 90 mins by scintillation counting analysis; assay type: cell-based, HEK293
Sodium-dependent dopamine transporter, sequence (Q01959 whole entry): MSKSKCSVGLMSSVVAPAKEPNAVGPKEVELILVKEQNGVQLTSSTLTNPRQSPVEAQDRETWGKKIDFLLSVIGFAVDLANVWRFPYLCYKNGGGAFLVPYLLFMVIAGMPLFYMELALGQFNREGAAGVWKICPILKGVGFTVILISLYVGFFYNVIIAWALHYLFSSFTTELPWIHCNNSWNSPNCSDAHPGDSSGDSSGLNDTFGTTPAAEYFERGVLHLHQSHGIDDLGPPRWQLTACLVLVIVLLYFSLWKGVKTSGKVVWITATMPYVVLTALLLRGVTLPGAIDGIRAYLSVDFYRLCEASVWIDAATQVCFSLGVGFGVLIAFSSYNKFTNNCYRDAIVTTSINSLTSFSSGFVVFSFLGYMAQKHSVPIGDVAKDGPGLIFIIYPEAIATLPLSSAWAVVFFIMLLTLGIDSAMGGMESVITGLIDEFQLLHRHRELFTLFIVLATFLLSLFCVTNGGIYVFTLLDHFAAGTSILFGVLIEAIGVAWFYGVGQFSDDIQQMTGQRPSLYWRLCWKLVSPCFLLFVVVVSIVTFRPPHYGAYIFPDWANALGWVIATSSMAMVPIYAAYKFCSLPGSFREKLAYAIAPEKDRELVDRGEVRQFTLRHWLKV

Histamine H1 receptor, sequence (P35367 whole entry): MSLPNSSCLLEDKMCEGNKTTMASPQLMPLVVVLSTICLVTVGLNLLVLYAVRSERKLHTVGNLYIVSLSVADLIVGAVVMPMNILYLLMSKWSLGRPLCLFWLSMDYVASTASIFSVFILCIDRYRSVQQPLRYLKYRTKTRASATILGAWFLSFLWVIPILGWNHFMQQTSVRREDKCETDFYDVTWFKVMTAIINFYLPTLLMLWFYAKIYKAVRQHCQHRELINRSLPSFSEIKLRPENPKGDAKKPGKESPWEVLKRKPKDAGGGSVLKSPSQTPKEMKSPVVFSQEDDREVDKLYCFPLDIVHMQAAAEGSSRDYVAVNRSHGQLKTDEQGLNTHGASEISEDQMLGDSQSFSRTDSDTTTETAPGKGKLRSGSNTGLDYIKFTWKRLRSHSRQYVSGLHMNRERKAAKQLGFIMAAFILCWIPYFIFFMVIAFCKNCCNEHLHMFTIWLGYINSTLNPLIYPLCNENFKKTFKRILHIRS
Muscarinic acetylcholine receptor M5, sequence (P08912 whole entry): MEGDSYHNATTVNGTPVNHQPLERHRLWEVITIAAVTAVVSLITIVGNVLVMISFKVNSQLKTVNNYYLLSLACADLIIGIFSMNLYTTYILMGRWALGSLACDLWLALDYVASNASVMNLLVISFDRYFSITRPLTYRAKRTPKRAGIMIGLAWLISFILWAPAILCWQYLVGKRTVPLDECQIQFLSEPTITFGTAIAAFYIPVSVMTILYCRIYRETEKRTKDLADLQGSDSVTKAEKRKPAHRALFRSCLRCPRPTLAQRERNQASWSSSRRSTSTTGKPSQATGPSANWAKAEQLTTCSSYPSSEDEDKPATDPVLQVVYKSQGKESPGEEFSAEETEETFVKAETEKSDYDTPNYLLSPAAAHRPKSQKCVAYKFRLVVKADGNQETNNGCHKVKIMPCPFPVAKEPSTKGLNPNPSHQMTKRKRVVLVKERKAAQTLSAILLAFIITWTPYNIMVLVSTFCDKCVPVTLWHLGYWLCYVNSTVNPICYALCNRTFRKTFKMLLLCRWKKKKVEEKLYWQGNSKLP
Muscarinic acetylcholine receptor M3, sequence (P20309 whole entry): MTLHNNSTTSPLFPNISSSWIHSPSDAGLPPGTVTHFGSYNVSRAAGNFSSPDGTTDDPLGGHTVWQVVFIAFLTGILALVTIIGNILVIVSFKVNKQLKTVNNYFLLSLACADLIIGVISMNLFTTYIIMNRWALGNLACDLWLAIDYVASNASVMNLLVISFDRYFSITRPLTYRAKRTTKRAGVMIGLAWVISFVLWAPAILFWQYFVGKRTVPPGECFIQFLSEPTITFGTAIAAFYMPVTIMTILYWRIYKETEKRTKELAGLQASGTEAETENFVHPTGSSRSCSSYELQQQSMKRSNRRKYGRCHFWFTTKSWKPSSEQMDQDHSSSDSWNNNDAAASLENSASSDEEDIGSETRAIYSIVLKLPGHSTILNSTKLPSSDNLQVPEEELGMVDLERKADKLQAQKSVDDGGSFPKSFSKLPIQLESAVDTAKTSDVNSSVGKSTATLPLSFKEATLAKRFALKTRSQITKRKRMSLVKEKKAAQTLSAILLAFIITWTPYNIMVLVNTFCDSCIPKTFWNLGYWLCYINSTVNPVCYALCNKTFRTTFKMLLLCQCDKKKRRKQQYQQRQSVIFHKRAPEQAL
Mu-type opioid receptor, sequence (P35372 whole entry): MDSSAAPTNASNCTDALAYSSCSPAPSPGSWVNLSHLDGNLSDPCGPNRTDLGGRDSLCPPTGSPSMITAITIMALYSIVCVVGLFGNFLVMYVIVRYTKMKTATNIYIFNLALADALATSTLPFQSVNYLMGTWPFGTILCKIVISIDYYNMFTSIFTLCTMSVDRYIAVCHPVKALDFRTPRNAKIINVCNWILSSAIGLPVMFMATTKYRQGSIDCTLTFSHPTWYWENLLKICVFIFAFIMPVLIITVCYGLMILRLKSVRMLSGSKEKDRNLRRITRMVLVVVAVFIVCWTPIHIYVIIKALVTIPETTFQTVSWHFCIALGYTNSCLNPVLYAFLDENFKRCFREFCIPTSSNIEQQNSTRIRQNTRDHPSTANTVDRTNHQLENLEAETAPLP
Sodium-dependent serotonin transporter, sequence (P31645 whole entry): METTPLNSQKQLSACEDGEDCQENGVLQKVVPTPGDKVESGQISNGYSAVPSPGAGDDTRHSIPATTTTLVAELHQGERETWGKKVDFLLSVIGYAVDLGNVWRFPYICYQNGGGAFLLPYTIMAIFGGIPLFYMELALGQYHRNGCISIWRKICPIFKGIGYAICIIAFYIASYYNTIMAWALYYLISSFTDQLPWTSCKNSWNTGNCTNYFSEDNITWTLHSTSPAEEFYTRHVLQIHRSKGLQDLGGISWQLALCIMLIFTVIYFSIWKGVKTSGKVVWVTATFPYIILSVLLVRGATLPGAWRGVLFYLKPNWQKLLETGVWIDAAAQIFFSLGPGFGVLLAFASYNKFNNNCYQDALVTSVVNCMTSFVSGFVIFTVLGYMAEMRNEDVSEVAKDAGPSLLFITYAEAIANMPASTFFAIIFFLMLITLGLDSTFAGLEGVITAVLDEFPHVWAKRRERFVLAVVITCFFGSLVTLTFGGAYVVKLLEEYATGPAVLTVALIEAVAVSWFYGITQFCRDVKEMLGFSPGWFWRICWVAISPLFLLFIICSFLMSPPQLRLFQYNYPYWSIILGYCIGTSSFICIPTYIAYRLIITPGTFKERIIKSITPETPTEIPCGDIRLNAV
5-hydroxytryptamine receptor 1D, sequence (P28221 whole entry): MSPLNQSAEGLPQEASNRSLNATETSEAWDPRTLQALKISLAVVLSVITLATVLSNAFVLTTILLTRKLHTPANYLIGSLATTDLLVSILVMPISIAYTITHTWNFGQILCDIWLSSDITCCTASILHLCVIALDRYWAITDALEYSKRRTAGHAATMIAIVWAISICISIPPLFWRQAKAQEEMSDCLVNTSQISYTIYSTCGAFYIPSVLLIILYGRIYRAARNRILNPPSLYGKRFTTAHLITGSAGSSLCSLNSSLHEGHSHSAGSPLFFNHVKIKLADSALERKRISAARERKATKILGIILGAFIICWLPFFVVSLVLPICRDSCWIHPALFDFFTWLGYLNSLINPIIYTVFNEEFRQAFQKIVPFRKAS
Delta-type opioid receptor, sequence (P41143 whole entry): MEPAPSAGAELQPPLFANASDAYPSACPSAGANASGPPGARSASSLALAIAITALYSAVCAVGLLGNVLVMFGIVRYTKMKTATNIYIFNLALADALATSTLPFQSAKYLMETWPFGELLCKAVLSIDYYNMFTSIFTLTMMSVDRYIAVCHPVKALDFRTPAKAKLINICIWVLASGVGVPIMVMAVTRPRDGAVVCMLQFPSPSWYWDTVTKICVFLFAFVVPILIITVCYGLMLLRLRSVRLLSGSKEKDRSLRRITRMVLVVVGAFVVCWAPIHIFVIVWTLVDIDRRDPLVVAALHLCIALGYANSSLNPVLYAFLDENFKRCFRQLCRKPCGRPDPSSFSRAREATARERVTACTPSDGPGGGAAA
Muscarinic acetylcholine receptor M2, sequence (P08172 whole entry): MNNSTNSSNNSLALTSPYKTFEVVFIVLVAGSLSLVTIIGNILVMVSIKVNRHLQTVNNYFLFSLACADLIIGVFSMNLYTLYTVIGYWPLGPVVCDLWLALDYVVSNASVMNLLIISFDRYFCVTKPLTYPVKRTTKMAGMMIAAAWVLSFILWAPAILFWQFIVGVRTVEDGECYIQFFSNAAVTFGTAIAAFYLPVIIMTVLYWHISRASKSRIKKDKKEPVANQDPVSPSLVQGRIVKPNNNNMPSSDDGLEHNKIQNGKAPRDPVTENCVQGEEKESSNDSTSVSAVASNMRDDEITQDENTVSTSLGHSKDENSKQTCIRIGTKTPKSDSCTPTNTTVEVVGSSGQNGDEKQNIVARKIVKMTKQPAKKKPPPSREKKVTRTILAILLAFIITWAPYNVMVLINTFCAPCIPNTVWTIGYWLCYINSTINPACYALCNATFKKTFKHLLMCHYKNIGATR
Translocator protein, sequence (P16257 whole entry, looked up): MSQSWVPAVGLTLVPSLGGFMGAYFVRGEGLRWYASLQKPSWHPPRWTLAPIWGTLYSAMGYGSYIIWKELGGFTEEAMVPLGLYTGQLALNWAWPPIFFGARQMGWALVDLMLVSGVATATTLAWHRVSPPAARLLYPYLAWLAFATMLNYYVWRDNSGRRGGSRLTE

Ki [1]: 466 nM
Ki [2]: 1160 nM
Ki [3]: 80 nM
Ki [4]: 644 nM
Ki [5]: 565 nM
Ki [6]: 1320 nM
IC50 [7]: 260 nM
Ki [8]: 80 nM
Ki [9]: 684 nM
Ki [10]: 34 nM
logP [14]: 1.86
Ki [15]: > 10000 nM
Ki [16]: > 10000 nM
Ki [17]: > 10000 nM
Ki [18]: > 10000 nM
Ki [19]: > 10000 nM
Ki [20]: > 10000 nM
Ki [21]: > 10000 nM
Ki [22]: > 10000 nM
Ki [23]: > 10000 nM
Ki [24]: > 10000 nM
Ki [25]: > 10000 nM
Ki [26]: > 10000 nM
Ki [27]: > 10000 nM
Ki [28]: > 10000 nM
SMILES: Cl.NC1=Nc2ccc(Cl)cc2CN1
Activity [11]: Non-toxic
Activity [12]: Non-toxic
ED50 [13]: 0.23 mg/kg
